Test results from patent US20250276074A1, “BRM AND BRG1 TARGETING ANTIBODY-DRUG CONJUGATES AND METHODS OF USE THEREOF” (Prelude Therapeutics Incorporated, priority 2024, published 2025).

Columns and labels:
SMARCA4 [1] = target: T1, SMARCA4 (Homo sapiens, UniProt P51532); experiment: SMARCA4 HiBiT degradation assay in HeLa cells; format: cell-based; design: SMARCA4-HiBiT knock-in Hela monoclonal cell (CS3023226) were purchased from Promega; host or cells: HeLa SMARCA4-HiBiT knock-in monoclonal cells (heterozygous); conditions: 18 hours; for Dmax: HeLa
Procedure: (§1) HiBiT peptide knock-in of SMARCA2 in LgBiT expressing HEK293T cells was performed by CRISPR-mediated tagging system as described Promega. The homozygous HiBiT knock-in on c-terminus SMARCA2 was confirmed by sanger sequence. SMARCA2-HiBiT knock-in Hela monoclonal cell (CS302366) and SMARCA4-HiBiT knock-in Hela monoclonal cell (CS3023226) were purchased from Promega. The heterozygous HiBiT-knock-in was confirmed by sanger sequence in both SMARCA2-HiBiT and SMARCA4-HiBiT monoclonal cells.
(§2) Dispense 10ul aliquot of prepared Hela-SMARCA2-HiBiT or Hela-SMARCA4-HiBiT cells (1:1 ratio of cells:Trypan Blue (#1450013, Bio-Rad)) onto cell counting slide (#145-0011, Bio-Rad) and obtain cell density and cell viability using cell counter (TC20, Bio-Rad). Remove appropriate volume of resuspended cells from culture flask to accommodate 2500 cells/well @20 μL/well. Transfer Hela-HiBiT cells to 50 mL conical (#430290, Corning). Spin down at 1000 rpm for 5 min using tabletop centrifuge (SPINCHRON 15, Beckman). Discard supernatant and resuspend cell pellet in modified EMEM (#30-2003, ATCC) cell culture media containing 10% FBS (F2422-500ML, Sigma), and 1× Penicillin/Streptomycin (200 g/L) (30-002-CI, Corning) to a cell density of 125,000 cells/mL. Dispense […] of resuspended Hela-HiBit cells per well in 384-well TC treated plate (#12-565-343, Thermo Scientific) using standard cassette (#50950372, Thermo Scientific) on Multidrop Combi (#5840310, Thermo Scientific) inside laminar flow cabinet.
(§3) The degrader compounds of Table 4 were dissolved in DMSO to make 10 mM stock and 3-fold series dilutions were further conducted keeping the highest concentration 10 μM. Dispense test compounds onto plates using digital liquid dispenser (D300E, Tecan). Incubate plates in humidified tissue culture incubator at 37° C. for 18 hours. Add […] of prepared Nano-Glo® HiBiT Lytic detection buffer (N3050, Promega) to each well of 384-well plate using small tube cassette (#24073295, Thermo Scientific) on Multidrop Combi, incubate at room temperature for 30-60 min. Read plates on microplate reader (Envision 2105, PerkinElmer) using 384 well Ultra-Sensitive luminescence mode. Raw data files and compound information reports are swept into centralized data lake and deconvoluted using automated scripts designed by TetraScience, Inc. Data analysis, curve-fitting and reporting done in Dotmatics Informatics Suite using Screening Ultra module.

SMARCA2 [2] = target: T2, SMARCA2 (Homo sapiens, UniProt P51531); experiment: SMARCA2 HiBiT degradation assay in HeLa cells; format: cell-based; conditions: 18 hours
Procedure: as §1, §2, §3

[3] = system: SMARCA4 mutated cancer cells; conditions: Vangamudi et al. Cancer Res 2015; cited from earlier work
[4] = Body weight and survival of mice in the PC3 tumor study; format: in vivo, mouse; conditions: weekly administration, FIGS. 3A-3B
SMARCA4 [5] = target: T1, SMARCA4; experiment: Single dose pharmacodynamics, SMARCA4 in LNCaP tumors by western blot; format: in vivo; design: from tissue; host or cells: LNCaP xenograft tumours from CB17 SCID mice; conditions: mouse, LNCaP tumors in mice, tumors collected 1-5 days later, read-out: maximal degradation of SMARCA4
Procedure: (§4) In-life evaluation was conducted using 6-8-week-old male CB17 SCID mice that were subcutaneously inoculated with LNCaP tumor cells mixed 1:1 with Matrigel. Mice were castrated 3 days prior to randomization, which was done when tumors for efficacy evaluation would reach 100 mm^3-400 mm^3. […] Tumors were subsequently homogenized, and proteins were extracted before evaluating SMARCA2 and SMARCA4 expression by western blot.

SMARCA2 [6] = target: T2, SMARCA2; experiment: Single dose pharmacodynamics, SMARCA2 in LNCaP tumors by western blot; format: in vivo; design: from tissue; host or cells: LNCaP xenograft tumours from CB17 SCID mice; conditions: mouse, LNCaP tumors in mice, tumors collected 1-5 days later, read-out: maximal degradation of SMARCA2
Procedure: as §4

[7] = system: PSMA+ prostate cancer CDX (LNCaP); experiment: Anti-tumor efficacy in PSMA+ prostate cancer CDX (LNCaP); format: in vivo; conditions: castrated male CB17 SCID mice, 10 mg/kg s.c. Q3D, day 21
Procedure: as §4

PSMA negative PC3 tumors = experiment: Tumor growth inhibition in PSMA negative PC3 tumors, weekly administration; format: in vivo, mouse; conditions: FIGS. 3A-3B
[8] = Tolerability in the LNCaP CDX efficacy study; conditions: CB17 SCID mice with LNCaP tumors
Procedure: In-life evaluation was conducted using 6-8-week-old male CB17 SCID mice that were subcutaneously inoculated with LNCaP tumor cells mixed 1:1 with Matrigel. Mice were castrated 3 days prior to randomization, which was done when tumors for efficacy evaluation would reach 100 mm^3-400 mm^3.

[9] = iv, single dose 20 mg/kg i.v. infusion

T2 sequence (P51531 whole entry): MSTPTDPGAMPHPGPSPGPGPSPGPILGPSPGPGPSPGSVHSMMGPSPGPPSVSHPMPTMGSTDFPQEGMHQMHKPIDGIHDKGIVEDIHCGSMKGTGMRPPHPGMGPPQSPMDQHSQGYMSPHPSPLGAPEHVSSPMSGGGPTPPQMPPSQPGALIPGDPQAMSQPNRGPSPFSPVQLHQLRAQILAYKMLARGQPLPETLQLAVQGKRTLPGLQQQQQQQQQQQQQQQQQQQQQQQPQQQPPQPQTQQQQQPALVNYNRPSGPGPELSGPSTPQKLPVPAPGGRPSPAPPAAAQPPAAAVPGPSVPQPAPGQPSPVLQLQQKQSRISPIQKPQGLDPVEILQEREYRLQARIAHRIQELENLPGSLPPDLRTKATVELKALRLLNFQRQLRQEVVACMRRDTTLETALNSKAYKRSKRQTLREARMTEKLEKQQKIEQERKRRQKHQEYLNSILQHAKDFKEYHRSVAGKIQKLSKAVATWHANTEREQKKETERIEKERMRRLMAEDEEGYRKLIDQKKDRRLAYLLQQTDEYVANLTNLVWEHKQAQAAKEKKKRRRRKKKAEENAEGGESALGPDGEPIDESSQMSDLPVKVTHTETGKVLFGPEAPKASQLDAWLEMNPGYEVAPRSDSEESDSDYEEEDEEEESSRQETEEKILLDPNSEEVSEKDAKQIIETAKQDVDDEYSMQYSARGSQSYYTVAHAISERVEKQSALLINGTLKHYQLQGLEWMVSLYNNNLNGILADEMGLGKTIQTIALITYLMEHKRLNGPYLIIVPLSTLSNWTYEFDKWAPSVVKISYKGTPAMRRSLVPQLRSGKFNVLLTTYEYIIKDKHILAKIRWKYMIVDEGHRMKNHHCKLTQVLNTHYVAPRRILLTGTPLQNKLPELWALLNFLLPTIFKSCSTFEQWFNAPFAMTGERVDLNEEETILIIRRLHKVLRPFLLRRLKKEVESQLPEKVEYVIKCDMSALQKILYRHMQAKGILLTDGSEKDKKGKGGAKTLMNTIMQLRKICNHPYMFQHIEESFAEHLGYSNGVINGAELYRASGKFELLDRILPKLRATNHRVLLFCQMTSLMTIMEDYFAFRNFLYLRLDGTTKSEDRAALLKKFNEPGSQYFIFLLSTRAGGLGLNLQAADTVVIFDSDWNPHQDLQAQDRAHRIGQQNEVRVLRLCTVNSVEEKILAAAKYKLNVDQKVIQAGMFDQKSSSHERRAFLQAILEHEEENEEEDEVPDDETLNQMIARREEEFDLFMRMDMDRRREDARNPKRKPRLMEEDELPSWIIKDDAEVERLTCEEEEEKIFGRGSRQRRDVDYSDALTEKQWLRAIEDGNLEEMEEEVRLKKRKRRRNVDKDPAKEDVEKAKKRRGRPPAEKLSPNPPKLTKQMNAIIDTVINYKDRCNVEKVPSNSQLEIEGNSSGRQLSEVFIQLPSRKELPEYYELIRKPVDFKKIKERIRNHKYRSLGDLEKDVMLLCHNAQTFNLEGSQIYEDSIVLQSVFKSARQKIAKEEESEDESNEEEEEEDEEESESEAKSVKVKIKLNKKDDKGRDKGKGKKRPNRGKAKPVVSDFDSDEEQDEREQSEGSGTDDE
T1 sequence (P51532 whole entry): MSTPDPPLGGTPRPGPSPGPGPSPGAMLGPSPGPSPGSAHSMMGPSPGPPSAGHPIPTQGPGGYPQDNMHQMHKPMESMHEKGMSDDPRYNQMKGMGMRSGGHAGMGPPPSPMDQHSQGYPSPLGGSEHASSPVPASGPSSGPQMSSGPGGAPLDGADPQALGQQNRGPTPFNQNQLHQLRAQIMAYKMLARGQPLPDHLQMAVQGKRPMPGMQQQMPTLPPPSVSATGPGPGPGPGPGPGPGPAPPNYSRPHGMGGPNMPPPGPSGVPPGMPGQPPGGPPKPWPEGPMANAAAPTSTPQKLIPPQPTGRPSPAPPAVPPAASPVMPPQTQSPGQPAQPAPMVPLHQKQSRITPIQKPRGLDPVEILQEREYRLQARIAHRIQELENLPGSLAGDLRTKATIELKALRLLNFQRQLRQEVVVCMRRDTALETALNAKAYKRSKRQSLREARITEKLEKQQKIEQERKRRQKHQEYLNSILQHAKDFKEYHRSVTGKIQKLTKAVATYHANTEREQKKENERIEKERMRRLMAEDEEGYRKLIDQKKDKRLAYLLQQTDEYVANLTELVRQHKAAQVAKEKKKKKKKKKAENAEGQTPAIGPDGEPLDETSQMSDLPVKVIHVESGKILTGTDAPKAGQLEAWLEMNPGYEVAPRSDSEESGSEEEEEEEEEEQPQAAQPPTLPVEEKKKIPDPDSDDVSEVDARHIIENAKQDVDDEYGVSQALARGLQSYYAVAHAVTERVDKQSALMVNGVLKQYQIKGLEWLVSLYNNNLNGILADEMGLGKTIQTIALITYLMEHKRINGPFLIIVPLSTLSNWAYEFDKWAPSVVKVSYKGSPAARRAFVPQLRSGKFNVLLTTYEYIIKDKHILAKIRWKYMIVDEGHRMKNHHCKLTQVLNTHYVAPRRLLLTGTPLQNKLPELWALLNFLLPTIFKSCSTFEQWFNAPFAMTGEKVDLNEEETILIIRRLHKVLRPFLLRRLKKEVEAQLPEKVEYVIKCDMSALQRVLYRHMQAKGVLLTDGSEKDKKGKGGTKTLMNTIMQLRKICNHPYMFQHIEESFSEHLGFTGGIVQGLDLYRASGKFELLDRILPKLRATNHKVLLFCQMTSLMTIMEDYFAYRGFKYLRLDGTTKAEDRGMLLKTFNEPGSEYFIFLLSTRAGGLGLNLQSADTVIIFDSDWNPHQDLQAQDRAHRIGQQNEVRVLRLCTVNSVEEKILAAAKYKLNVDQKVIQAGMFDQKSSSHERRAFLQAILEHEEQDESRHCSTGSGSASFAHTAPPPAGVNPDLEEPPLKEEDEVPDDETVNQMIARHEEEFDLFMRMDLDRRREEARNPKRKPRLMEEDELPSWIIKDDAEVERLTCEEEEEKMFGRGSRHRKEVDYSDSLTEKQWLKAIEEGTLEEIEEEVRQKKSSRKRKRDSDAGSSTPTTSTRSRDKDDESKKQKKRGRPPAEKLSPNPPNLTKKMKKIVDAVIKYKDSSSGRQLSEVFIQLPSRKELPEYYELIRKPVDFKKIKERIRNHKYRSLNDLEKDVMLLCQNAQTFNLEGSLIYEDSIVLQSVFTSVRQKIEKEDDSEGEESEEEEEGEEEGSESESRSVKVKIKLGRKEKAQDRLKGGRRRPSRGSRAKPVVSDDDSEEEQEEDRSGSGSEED

| SMILES | DC50 (SMARCA4 [1]) [nM] | Dmax (SMARCA4 [1]) [%] | DC50 (SMARCA2 [2]) [nM] | Dmax (SMARCA2 [2]) [%] | other results |
| --- | --- | --- | --- | --- | --- |
| CC[C@]12CNc3nnc(-c4ccccc4O)cc3N1C[C@H](Oc1ncc(CN3CCN(c4ccc5c(c4)C(=O)N([C@H]4CCC(=O)NC4=O)C5)CC3)cc1C)C2 [Compound 6] | < 0.1 | > 90 | < 0.1 | > 90 | – |
| Cc1cc(CN2CCN(c3ccc4c(c3)C(=O)N([C@H]3CCC(=O)NC3=O)C4)CC2)cnc1O[C@H]1CN2c3cc(-c4ccccc4O)nnc3NC[C@]2(C)C1 [Compound 4] | 0.1 to 1 | – | < 0.1 | – | SMARCA4 Dmax (SMARCA4 [1]): A (Dmax>90%); SMARCA2 Dmax (SMARCA2 [2]): A (Dmax>90%) |
| Cc1cc(C(=O)N2CCN(c3ccc4c(c3)C(=O)N([C@H]3CCC(=O)NC3=O)C4)CC2)cnc1O[C@H]1CN2c3cc(-c4ccccc4O)nnc3NC[C@]2(C)C1 [Compound 5] | 0.1 to 1 | 50 to 90 | < 0.1 | > 90 | – |
| Cc1ncsc1-c1ccc([C@H](C)NC(=O)[C@@H]2C[C@@H](O)CN2C(=O)[C@@H](c2cc(OCCN3CCC(N4CCN5c6cc(-c7ccccc7O)nnc6N[C@H](C)[C@H]5C4)CC3)no2)C(C)C)cc1 [Compound 13] | 1 to 10 | > 90 | 0.1 to 1 | > 90 | – |
| Cc1ncsc1-c1ccc([C@H](C)NC(=O)[C@@H]2C[C@@H](O)CN2C(=O)[C@@H](c2cc(OCCN3CCC(N4CCN5c6cc(-c7ccccc7O)nnc6N[C@@H](C)[C@@H]5C4)CC3)no2)C(C)C)cc1 [Compound 11] | 1 to 10 | > 90 | 0.1 to 1 | > 90 | – |
| O=C(/C=C/N1C[C@H]2C[C@@H]1CN2c1ccccn1)c1ccccc1O [PFI-3] | – | – | – | – | effects on cell proliferation inhibition [3]: none to minor effects |
| CC[C@]12CNc3nnc(-c4ccccc4O)cc3N1C[C@H](Oc1ccc(CN3CCC(c4ccc5c(c4)C(=O)N([C@H]4CCC(=O)NC4=O)C5)CC3)cn1)C2 [Compound 10] | 0.1 to 1 | 50 to 90 | 0.1 to 1 | > 90 | – |
| Cc1ncsc1-c1ccc([C@H](C)NC(=O)[C@@H]2C[C@@H](O)CN2C(=O)[C@@H](c2cc(OCCN3CCC(CN4CCN5c6cc(-c7ccccc7O)nnc6NC[C@H]5C4)CC3)no2)C(C)C)cc1 [Compound 2] | – | – | – | – | mouse body weight loss and death [4]: caused mouse body weight loss and death; Dmax at 10 mg/kg (SMARCA4 [5]; sc, single dose 10 mg/kg s.c.): 86%; Dmax at 10 mg/kg (SMARCA2 [6]; sc, single dose 10 mg/kg s.c.): 99%; tumor growth inhibition (TGI) [7]: 93%; tumor growth inhibition (PSMA negative PC3 tumors): efficacious; mice died during the study ([8]; 10 mg/kg s.c. Q3D): 83.3% |
| C[C@]12CNc3nnc(-c4ccccc4O)cc3N1C[C@H](Oc1ccc(CN3CCN(c4ccc5c(c4)C(=O)N([C@H]4CCC(=O)NC4=O)C5)CC3)cn1)C2 [Compound 1] | 0.1 to 1 | > 90 | < 0.1 | > 90 | Dmax at 20 mg/kg (SMARCA4 [5]; [9]): 83%; Dmax at 20 mg/kg (SMARCA2 [6]; [9]): 98%; tumor growth inhibition (PSMA negative PC3 tumors): did not induce significant tumor growth inhibition; body weight loss ([8]; 20 mg/kg i.v. infusion QW): minimal; mouse deaths ([8]; 20 mg/kg i.v. infusion QW): no mouse deaths |
| Cc1ncsc1-c1ccc([C@H](C)NC(=O)[C@@H]2C[C@@H](O)CN2C(=O)[C@@H](c2cc(OCCN3CCC(N4CCN5c6cc(-c7ccccc7O)nnc6N[C@H](C)[C@@H]5C4)CC3)no2)C(C)C)cc1 [Compound 12] | 1 to 10 | > 90 | 1 to 10 | > 90 | – |
| C[C@]12CNc3nnc(-c4ccccc4O)cc3N1C[C@H](Oc1ncc(CN3CCN(c4ccc5c(c4)C(=O)N([C@H]4CCC(=O)NC4=O)C5)CC3)cc1F)C2 [Compound 2] | 0.1 to 1 | > 90 | 0.1 to 1 | > 90 | – |
| Cc1cc(CN2CCN(c3ccc4c(c3)C(=O)N([C@H]3CCC(=O)NC3=O)C4)CC2)cnc1O[C@H]1CN2c3cc(-c4ccccc4O)nnc3NC[C@]2(C)C1 [Compound 3] | 0.1 to 1 | – | 0.1 to 1 | > 90 | SMARCA4 Dmax (SMARCA4 [1]): B (50%<Dmax≤90%) |
| CC[C@]12CNc3nnc(-c4ccccc4O)cc3N1C[C@H](Oc1ncc(C(=O)N3CCN(c4ccc5c(c4)C(=O)N([C@H]4CCC(=O)NC4=O)C5)CC3)cc1C)C2 [Compound 7] | 0.1 to 1 | 50 to 90 | < 0.1 | > 90 | – |
| CC[C@]12CNc3nnc(-c4ccccc4O)cc3N1C[C@H](Oc1ccc(CN3CCN(c4ccc5c(c4)C(=O)N([C@H]4CCC(=O)NC4=O)C5)CC3)cn1)C2 [Compound 9] | 0.1 to 1 | > 90 | < 0.1 | > 90 | – |
| Cc1ncsc1-c1ccc([C@H](C)NC(=O)[C@@H]2C[C@@H](O)CN2C(=O)[C@@H](c2cc(OCCN3CCC(N4CCN5c6cc(-c7ccccc7O)nnc6N[C@@H](C)[C@H]5C4)CC3)no2)C(C)C)cc1 [Compound 14] | 1 to 10 | 50 to 90 | 1 to 10 | 50 to 90 | – |
| CC[C@]12CNc3nnc(-c4ccccc4O)cc3N1C[C@H](Oc1ncc(CN3CCN(c4ccc5c(c4)C(=O)N([C@H]4CCC(=O)NC4=O)C5)CC3)nc1C)C2 [Compound 8] | 0.1 to 1 | > 90 | < 0.1 | > 90 | – |
